We go through five compounds from US12227509B2, “Dihydropyrazolopyrazinone derivative having MGAT2 inhibitory activity” (Shionogi & Co., Ltd., priority 2019, dated 2025).

≈ marks a conversion by molar mass, not a printed value. Bounds are passed on as bounds.

Series [1] deals with CYP3A4 (Homo sapiens (Human), UniProt P08684). Nature of the series: CYP3A4 (MDZ) MBI test. The format is in vitro ADME. Particulars: pooled human liver microsomes; midazolam 1-hydroxylation; preincubation 0 vs 30 min. The method, then:
CYP3A4 (MDZ) MBI test is a test of investigating mechanism based inhibition (MBI) potential on CYP3A4 by the enhancement of inhibitory degree of a metabolic reaction caused by the compound of the present invention. CYP3A4 inhibition was evaluated using pooled human liver microsomes by 1-hydroxylation reaction of midazolam (MDZ) as a marker reaction.
The reaction conditions are as follows: substrate, 10 μmol/L MDZ; pre-reaction time, 0 or 30 minutes; substrate reaction time, 2 minutes; reaction temperature, 37° C.; protein content of pooled human liver microsomes, at pre-reaction time 0.5 mg/mL, at reaction time 0.05 mg/mL (at 10-fold dilution); concentrations of the compound of the present invention, at pre-reaction time 1, 5, 10, 20 μmol/L (four points).
Pooled human liver microsomes and a solution of the compound of the present invention in K-Pi buffer (pH 7.4) as a pre-reaction solution were added to a 96-well plate at the composition of the pre-reaction. A part of pre-reaction solution was transferred to another 96-well plate, and 1/10 diluted by K-Pi buffer containing a substrate. NADPH as a co-factor was added to initiate a reaction as a marker reaction (without pre-reaction). After a predetermined time of a reaction, methanol/acetonitrile=1/1 (V/V) solution was added to stop the reaction. In addition, NADPH was added to a remaining pre-reaction solution to initiate a pre-reaction (with pre-reaction). After a predetermined time of a pre-reaction, a part was transferred to another plate, and 1/10 diluted by K-Pi buffer containing a substrate to initiate a reaction as a marker reaction. After a predetermined time of a reaction, methanol/acetonitrile=1/1 (V/V) solution was added in order to stop the reaction. The plate on which each index reaction had been performed was centrifuged at 3000 rpm for 15 minutes, and thereafter 1-hydroxylated midazolam in the supernatant was quantified by LC/MS/MS.
The sample adding DMSO as a solvent to a reaction system instead of a solution dissolving the compound of the present invention was adopted as a control (100%). Remaining activity (%) was calculated at each concentration of the compound of the present invention compared to a control, and IC value was calculated by reverse-presumption by a logistic model using a concentration and an inhibition rate. IC at Preincubation 0 min/IC at Preincubation 30 min was defined as a value of Shifted IC, and a case that Shifted IC was 1.5 or more was regarded as Positive, and a case that Shifted IC was 1.0 or less was regarded as Negative.
A general note: Liver microsomes are a subcellular fraction often used to study metabolism.

For series [2], the target named is CYP1A2 (Homo sapiens (Human), UniProt P05177). Nature of the series: CYP inhibition test, CYP1A2. The format is in vitro ADME. The conditions noted are these: pooled human liver microsomes; 7-ethoxyresorufin O-deethylation; given as 'five kinds'. The text has this: Using commercially available pooled human hepatic microsome, and employing, as markers, 7-ethoxyresorufin O-deethylation (CYP1A2), tolbutamide methyl-hydroxylation (CYP2C9), mephenytoin 4'-hydroxylation (CYP2C19), dextromethorphan 0-demethylation (CYP2D6), and terfenadine hydroxylation (CYP3A4) as typical substrate metabolism reactions of human main five CYP enzyme forms (CYP1A2, 2C9, 2C19, 2D6, 3A4), an inhibitory degree of each metabolite production amount by the compound of the present invention was assessed. The reaction conditions are as follows: substrate, 0.5 μmol/L ethoxyresorufin (CYP1A2), 100 μmol/L tolbutamide (CYP2C9), 50 μmol/L S-mephenitoin (CYP2C19), 5 μmol/L dextromethorphan (CYP2D6), 1 μmol/L terfenedine (CYP3A4); reaction time, 15 minutes; reaction temperature, 37° C.; enzyme, pooled human liver microsomes 0.2 mg protein/mL; concentrations of the compound of the present invention, 1, 5, 10, 20 μmol/L (four points). As a reaction solution, each five kinds of substrates, human liver microsomes, or compound of the present invention in 50 mmol/L Hepes buffer were added to a 96-well plate at the composition as described above, and NADPH, as a cofactor was added to initiate metabolism reactions. After the incubation at 37° C. for 15 minutes, a methanol/acetonitrile=1/[…]) solution was added to stop the reaction. After the centrifugation at 3000 rpm for 15 minutes, resorufin (CYP1A2 metabolite) in the supernatant was quantified by a fluorescent multilabel counter or LC/MS/MS, and tolbutamide hydroxide (CYP2C9 metabolite), mephenytoin 4' hydroxide (CYP2C19 metabolite), dextrorphan (CYP2D6 metabolite), and terfenadine alcohol (CYP3A4 metabolite) were quantified by LC/MS/MS. Addition of only DMSO being a solvent dissolving a drug to a reaction system was adopted as a control (100%). Remaining activity (%) was calculated. IC50 was calculated by reverse presumption by a logistic model using the concentration and an inhibition rate.

Series [3] is described as follows: Solubility test (1% DMSO addition, pH 6.8 artificial intestinal juice). The format is physicochemical. Particulars: kinetic from dmso stock, 16 hours at 25° C. How it is done: The solubility of the compound of the present invention was determined under 1% DMSO addition conditions. 10 mmol/L solution of the compound was prepared with DMSO, and 6 μL of the solution of the compound of the present invention was added to 594 μL of pH 6.8 artificial intestinal juice (118 mL of 0.2 mol/L NaOH test solution and water were added to 250 mL of 0.2 mol/L potassium dihydrogen phosphate test solution to reach 1000 mL). The mixture was left standing for 16 hours at 25° C., and the mixture was vacuum-filtered. The filtrate was two-fold diluted with methanol/water=1/1 (V/V), and the compound concentration in the filtrate was measured with HPLC or LC/MS/MS by the absolute calibration method. The dilution concentration and the dilution solvent were changed as necessary.

The target of series [4] is hERG (IKr) (Homo sapiens (Human), UniProt Q12809). Nature of the series: hERG test. Particulars: CHO cells expressing hERG channel, pH 7.4, 10 μmol/L of test compound, read-out: % inhibition of hERG tail peak current (IKr). The format is cell-based. The source says:
For the purpose of assessing risk of an electrocardiogram QT interval prolongation of the compound of the present invention, effects of the compound of the present invention on delayed rectifier K^+ current (IKr), which plays an important role in the ventricular repolarization process, was studied using CHO cells expressing human ether-a-go-go related gene (hERG) channel.
After a cell was retained at a membrane potential of −80 mV by whole cell patch clamp method using an automated patch clamp system (QPatch; Sophion BIoscience A/S), IKr induced by application of a leak potential of −50 mV followed by depolarization pulse stimulation at +20 mV for 2 seconds and, further, repolarization pulse stimulation at −50 mV for 2 seconds, was recorded. […] From the recording IKr, an absolute value of the tail peak current was measured based on the current value at the resting membrane potential using analysis software (Falster Patch; Sophion Bioscience A/S). Further, the % inhibition of tail peak current for the compound of the present invention relative to the tail peak current after application of the vehicle is calculated to assess influence of the compound of the present invention on IKr.
Background: Block of hERG is tested as a sign of cardiac risk.

Sequence of CYP1A2 (P05177 whole entry): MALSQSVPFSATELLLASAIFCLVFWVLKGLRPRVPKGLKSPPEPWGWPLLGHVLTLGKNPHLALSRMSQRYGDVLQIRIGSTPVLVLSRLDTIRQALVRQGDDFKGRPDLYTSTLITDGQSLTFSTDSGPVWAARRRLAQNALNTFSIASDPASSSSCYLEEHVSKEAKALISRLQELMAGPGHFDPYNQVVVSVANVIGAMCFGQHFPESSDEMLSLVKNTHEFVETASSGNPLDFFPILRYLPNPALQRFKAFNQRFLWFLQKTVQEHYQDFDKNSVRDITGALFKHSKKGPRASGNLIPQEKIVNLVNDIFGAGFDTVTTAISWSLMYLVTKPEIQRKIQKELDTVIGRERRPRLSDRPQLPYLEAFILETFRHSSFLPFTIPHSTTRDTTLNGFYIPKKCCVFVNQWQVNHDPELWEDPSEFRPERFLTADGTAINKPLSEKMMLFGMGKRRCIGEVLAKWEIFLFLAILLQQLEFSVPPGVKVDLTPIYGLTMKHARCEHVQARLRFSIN
Sequence of CYP3A4 (P08684 whole entry): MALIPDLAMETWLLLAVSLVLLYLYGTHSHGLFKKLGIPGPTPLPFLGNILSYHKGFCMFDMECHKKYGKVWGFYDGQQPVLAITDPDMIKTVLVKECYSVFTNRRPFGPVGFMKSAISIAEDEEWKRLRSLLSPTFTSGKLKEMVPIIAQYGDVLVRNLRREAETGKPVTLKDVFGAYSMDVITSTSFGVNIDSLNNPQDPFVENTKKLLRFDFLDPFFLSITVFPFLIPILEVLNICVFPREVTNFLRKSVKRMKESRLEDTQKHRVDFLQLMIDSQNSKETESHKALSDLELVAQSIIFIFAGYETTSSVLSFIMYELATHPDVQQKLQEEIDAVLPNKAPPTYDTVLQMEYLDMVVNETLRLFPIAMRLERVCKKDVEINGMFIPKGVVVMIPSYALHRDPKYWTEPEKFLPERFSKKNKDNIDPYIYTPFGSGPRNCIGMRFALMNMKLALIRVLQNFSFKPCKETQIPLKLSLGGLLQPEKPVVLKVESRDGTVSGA
Sequence of hERG (IKr) (Q12809 whole entry): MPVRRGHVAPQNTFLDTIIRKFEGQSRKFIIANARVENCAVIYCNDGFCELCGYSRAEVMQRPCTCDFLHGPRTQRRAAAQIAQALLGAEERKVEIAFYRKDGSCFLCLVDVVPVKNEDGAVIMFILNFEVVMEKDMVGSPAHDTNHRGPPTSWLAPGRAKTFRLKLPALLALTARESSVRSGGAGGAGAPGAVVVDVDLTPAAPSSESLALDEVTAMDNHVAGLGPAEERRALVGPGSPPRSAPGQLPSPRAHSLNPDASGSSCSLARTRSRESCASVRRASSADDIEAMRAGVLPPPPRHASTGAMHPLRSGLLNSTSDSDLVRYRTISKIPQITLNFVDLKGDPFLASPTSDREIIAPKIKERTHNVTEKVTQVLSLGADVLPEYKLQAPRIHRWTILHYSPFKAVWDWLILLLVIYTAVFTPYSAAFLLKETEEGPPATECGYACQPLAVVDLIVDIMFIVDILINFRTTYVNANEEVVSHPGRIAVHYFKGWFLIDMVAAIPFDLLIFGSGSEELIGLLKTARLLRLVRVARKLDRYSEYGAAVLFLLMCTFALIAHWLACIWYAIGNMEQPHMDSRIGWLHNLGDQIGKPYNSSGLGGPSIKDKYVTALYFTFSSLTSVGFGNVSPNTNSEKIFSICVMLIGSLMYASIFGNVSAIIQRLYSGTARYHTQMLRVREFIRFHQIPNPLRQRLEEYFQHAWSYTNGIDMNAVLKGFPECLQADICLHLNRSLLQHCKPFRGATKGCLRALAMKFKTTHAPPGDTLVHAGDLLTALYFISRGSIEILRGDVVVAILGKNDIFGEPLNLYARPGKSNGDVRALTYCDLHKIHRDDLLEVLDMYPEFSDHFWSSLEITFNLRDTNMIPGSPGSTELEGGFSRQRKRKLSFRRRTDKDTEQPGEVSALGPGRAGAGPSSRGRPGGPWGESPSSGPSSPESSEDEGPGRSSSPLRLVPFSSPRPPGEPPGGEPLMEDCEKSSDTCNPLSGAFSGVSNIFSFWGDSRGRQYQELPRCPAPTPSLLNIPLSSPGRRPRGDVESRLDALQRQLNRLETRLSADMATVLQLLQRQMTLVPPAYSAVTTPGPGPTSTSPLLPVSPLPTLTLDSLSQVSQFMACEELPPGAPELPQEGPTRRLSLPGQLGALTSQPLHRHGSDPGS

Turning to `CS(=O)(=O)CC(=O)Nc1c(CCC2CC2)nn2c1C(=O)N[C@@]1(CCc3cc(OCC(F)(F)F)ccc31)C2` [Compound I-46], the “CYP3A4 (MDZ) MBI (Shifted IC judgement)” value in series [1] is listed as “Negative (a case that Shifted IC was 1.0 or less was regarded as Negative)”. The IC50 (in general, the point on the concentration scale where inhibition reaches its midpoint) in series [2] was greater than 20 µM. For the same compound, in series [3], the solubility – broadly, the dissolved amount per volume that the medium holds – at 16 h was greater than 50 µM.
Turning to `N#Cc1ccc(-c2nn3c(c2NC(=O)CC(F)(F)F)C(=O)N[C@@]2(CCc4cc(OCC(F)(F)F)ccc42)C3)nc1` [Compound I-14], in series [1], the “CYP3A4 (MDZ) MBI (Shifted IC judgement)” value is “Negative (a case that Shifted IC was 1.0 or less was regarded as Negative)”. Further, the IC50 in series [2] is greater than 20 µM. This compound also had a solubility at 16 h in series [3] of 41.8 µM (≈ 23.6 µg/mL). For the same compound, in series [4], the inhibition – broadly, the change of the read-out against control, counted positive when it falls – at 10 min, 10 μmol/L came out at 25.5%.
In the case of `Cc1ccc(-c2nn3c(c2NC(=O)CS(C)(=O)=O)C(=O)N[C@@]2(CCc4cc(OCC(F)(F)F)ccc42)C3)nc1` [Compound I-6], the “CYP3A4 (MDZ) MBI (Shifted IC judgement)” value in series [1] is “Negative (a case that Shifted IC was 1.0 or less was regarded as Negative)”. Besides, in series [2], the IC50 was greater than 20 µM. For the same compound, the solubility at 16 h in series [3] is greater than 50 µM.
For `CS(=O)(=O)CC(=O)Nc1c(CCC(F)(F)F)nn2c1C(=O)N[C@@]1(CCc3cc(OCC(F)(F)F)ccc31)C2` [Compound I-58], in series [1], the “CYP3A4 (MDZ) MBI (Shifted IC judgement)” value is “Negative (a case that Shifted IC was 1.0 or less was regarded as Negative)”. In series [2], this compound came in with an IC50 greater than 20 µM. Moreover, in series [3], the solubility at 16 h is greater than 50 µM.
Consider `Cc1ccc(-c2nn3c(c2NC(=O)CS(C)(=O)=O)C(=O)N[C@@]2(CCc4cc(OCC(F)(F)F)ccc42)C3)cc1` [Compound I-20], for which the “CYP3A4 (MDZ) MBI (Shifted IC judgement)” value in series [1] is “Negative (a case that Shifted IC was 1.0 or less was regarded as Negative)”. The same compound showed an IC50 in series [2] greater than 20 µM. The inhibition at 10 min, 10 μmol/L in series [4] was 27.8%.
